Results published in US10647671B2, “Promysalin analogues and methods of use thereof” (Temple University—Of The Commonwealth System of Higher …, priority 2016, dated 2020).
Read-outs that look alike come from different tables or passages of the source.

How the values were obtained:
[1] = system: P. aeruginosa strains PAO1 and PA14; assay: Inhibitory activity against P. aeruginosa, strain not separated in text; assay type: cell-based, Pseudomonas aeruginosa; conditions: compared with promysalin
Method: (§1) P. aeruginosa PA01, and PA14 were gifts from Prof. George O'Toole (Dartmouth Medical School). Bacterial cultures were grown from freezer stocks overnight (16-24 hr) with shaking at 37° C. in Tryptic Soy Broth (TSB) media (10 mL). Growth curves were obtained for PA01 and PA14 to determine the OD of each strain in exponential growth; OD readings at 595 nm were taken every 10 minutes for 6 hours in a plate reader at 37° C. with shaking and repeated six times. (see FIGS. 6A and 6B)
(§2) Compounds were serially diluted in sterile DI water from a stock solution (1 mM in 10% DMSO/90% H2O) to yield twenty-four test concentrations. Overnight cultures were diluted 1:100 in 5 mL fresh media and grown with shaking at 37° C. to an OD of 0.32 (see growth curves). Bacteria were diluted to a concentration of 0.004 using the following equation: (x μL O/N)(OD reading)=(0.004)(volume needed) and 100 μL was inoculated into each well of a flat-bottom 96-well plate (Corning 3370) containing 100 μL of compound solution. Plates were incubated statically at 37° C. for 24 hours, upon which time the OD at 595 nm was measured using a plate reader. IC50 values were calculated by fitting the OD readings vs. concentration with a 4 parameter logistic model. Controls were prepared by serially diluting a 10% DMSO/90% H2O the same as the compound stock solution. Compounds were tested in triplicate from separate O/N cultures and results averaged.
With a library of sixteen analogs in hand, all of the compounds were evaluated for inhibitory activity against P. aeruginosa strains PAO1 and PA14. […] The inhibition data supported our initial hypothesis that the conformation of promysalin is exquisitely linked to its inhibition of PA. Of our modifications to the proline structure, fluorination (9)—being the smallest steric perturbation, was the only compound with equipotency to that of promysalin.

P. aeruginosa PA14 = assay: IC50 assay (OD595, 24 h) against PA14; assay type: cell-based, Pseudomonas aeruginosa; conditions: Pseudomonas aeruginosa
Method: as §1, §2
Compounds were serially diluted in sterile DI water from a stock solution (10% DMSO/H2O) yielding 24 test concentrations. Bacteria were diluted to a final concentration of 0.004 from regrown overnight culture according to the following equation: (xμL bacterial culture)(OD reading)=(0.004)(total volume needed) and 100 μL was inoculated into each well of a flat-bottom 96-well plate (Corning 3370) containing 100 μL of compound solution. Plates were incubated statically at 37° C. for 24 hours upon which time OD at 595 nm was measured using a plate reader (Spectra Max 190). IC50 values were calculated using OD values and concentrations with a 4-parameter logistic model. Control experiments used a 10% DMSO/H2O stock serially diluted to the same 24 concentrations. Compounds were tested in triplicate from three independent overnight cultures.

P. aeruginosa PA01 = assay: IC50 assay (OD595, 24 h) against PA01; assay type: cell-based; conditions: Pseudomonas aeruginosa
Method: P. aeruginosa PA01, and PA14 were gifts from Prof. George O'Toole (Dartmouth Medical School). Bacterial cultures were grown from freezer stocks overnight (16-24 hr) with shaking at 37° C. in Tryptic Soy Broth (TSB) media (10 mL). Growth curves were obtained for PA01 and PA14 to determine the OD of each strain in exponential growth; OD readings at 595 nm were taken every 10 minutes for 6 hours in a plate reader at 37° C. with shaking and repeated six times. (see FIGS. 6A and 6B) Compounds were serially diluted in sterile DI water from a stock solution (1 mM in 10% DMSO/90% H2O) to yield twenty-four test concentrations. Overnight cultures were diluted 1:100 in 5 mL fresh media and grown with shaking at 37° C. to an OD of 0.32 (see growth curves). Bacteria were diluted to a concentration of 0.004 using the following equation: (x μL O/N)(OD reading)=(0.004)(volume needed) and 100 μL was inoculated into each well of a flat-bottom 96-well plate (Corning 3370) containing 100 μL of compound solution. Plates were incubated statically at 37° C. for 24 hours, upon which time the OD at 595 nm was measured using a plate reader. IC50 values were calculated by fitting the OD readings vs. concentration with a 4 parameter logistic model. Controls were prepared by serially diluting a 10% DMSO/90% H2O the same as the compound stock solution. Compounds were tested in triplicate from separate O/N cultures and results averaged.

[2] = average of EXPT 1-3, read-out: IC50 PA14 AVG
[3] = averages of three independent experiments, read-out: IC50 PA14
[4] = single trial 1, read-out: IC50 PA14 EXPT 1
[5] = single trial 2, read-out: IC50 PA14 EXPT 2
[6] = single trial 3, read-out: IC50 PA14 EXPT 3
[7] = average of EXPT 1-3, read-out: IC50 PA01 AVG
[8] = averages of three independent experiments, read-out: IC50 PA01
[9] = single trial 1, read-out: IC50 PA01 EXPT 1
[10] = single trial 2, read-out: IC50 PA01 EXPT 2
[11] = single trial 3, read-out: IC50 PA01 EXPT 3

Row | IC50 (P. aeruginosa PA14; [2]) [µM] | IC50 (P. aeruginosa PA14; [3]) [µM] | IC50 (P. aeruginosa PA14; [4]) [µM] | IC50 (P. aeruginosa PA14; [5]) [µM] | IC50 (P. aeruginosa PA14; [6]) [µM] | IC50 (P. aeruginosa PA01; [7]) [µM] | IC50 (P. aeruginosa PA01; [8]) [µM] | IC50 (P. aeruginosa PA01; [9]) [µM] | IC50 (P. aeruginosa PA01; [10]) [µM] | IC50 (P. aeruginosa PA01; [11]) [µM] | SMILES | inhibitory activity against P. aeruginosa, in words (SAR) [1]
1 | 0.067 | 0.067 | 0.12 | 0.05 | 0.03 | 8.34 | 8.3 | 10.1 | 8.07 | 6.81 | CCCCCC[C@H](C/C=C/CC[C@@H](O)C(N)=O)OC(=O)[C@@H]1CC=CN1C(=O)c1ccccc1O [compound 21, (7R,13R,E)-14-amino-13-hydroxy-14-oxotetradec-9-en-7-yl (S)-1-(2-hydroxybenzoyl)-2,3-dihydro-1H-pyrrole-2-carboxylate] | equipotent
2 | 0.019 | 0.019 | 0.04 | 0.01 | 0.01 | 7.7 | 7.7 | 8.11 | 8.57 | 6.41 | CCCCCC[C@H](CCCCC[C@@H](O)C(N)=O)OC(=O)[C@@H]1CC(F)=CN1C(=O)c1ccccc1O [compound 9, (7R,13R)-14-amino-13-hydroxy-14-oxotetradecan-7-yl (S)-4-fluoro-1-(2-hydroxybenzoyl)-2,3-dihydro-1H-pyrrole-2-carboxylate] | equipotency
3 | 28.3 | 28 | 24.3 | 27.1 | 33.7 | 111 | 111 | 113 | 98.9 | 121 | CCCCCC[C@H](CCCCC[C@@H](O)C(N)=O)OC(=O)[C@@H]1CCCN1C(=O)c1ccccc1O [compound 6, (1R,7R)-1-carbamoyl-1-hydroxytridecan-7-yl (2S)-1-(2-hydroxybenzoyl)pyrrolidine-2-carboxylate] | modest activity
4 | 11.2 | 11 | 12.8 | 5.72 | 15 | 38.3 | 38 | 29.2 | 49.3 | 47.6 | CCCCCC[C@H](CCCCC[C@@H](OC)C(N)=O)OC(=O)[C@@H]1CC=CN1C(=O)c1ccccc1O [compound 19, (7R,13R)-14-amino-13-methoxy-14-oxotetradecan-7-yl (S)-1-(2-hydroxybenzoyl)-2,3-dihydro-1H-pyrrole-2-carboxylate] | decrease in potency
